Assay results reported in ChEMBL document CHEMBL5029194, “Discovery and Optimization of 7-Alkylidenyltetrahydroindazole-Based Acylsulfonamide EP3 Antagonists” (ACS Med Chem Lett, 2022).
The source made the active and inactive calls. No cut-off for these calls is given here.

Assays:
[1] = Cmax in Sprague-Dawley rat at 10 mg/kg, po measured up to 7 hrs by LC-MS-MS analysis; type: ADME, organism-based; set-up: route oral, dose 10 mg/kg, time <=7; conditions: in vivo
[2] = AUClast in Sprague-Dawley rat at 10 mg/kg, po measured up to 7 hrs by LC-MS-MS analysis; type: ADME, organism-based; set-up: route oral, dose 10 mg/kg, time <=7; conditions: in vivo
[3] = target: T1, Prostaglandin E2 receptor EP1 subtype (Homo sapiens, UniProt P34995); assay: Binding affinity to human EP1 receptor assessed as inhibition constant
T1 sequence (P34995 whole entry): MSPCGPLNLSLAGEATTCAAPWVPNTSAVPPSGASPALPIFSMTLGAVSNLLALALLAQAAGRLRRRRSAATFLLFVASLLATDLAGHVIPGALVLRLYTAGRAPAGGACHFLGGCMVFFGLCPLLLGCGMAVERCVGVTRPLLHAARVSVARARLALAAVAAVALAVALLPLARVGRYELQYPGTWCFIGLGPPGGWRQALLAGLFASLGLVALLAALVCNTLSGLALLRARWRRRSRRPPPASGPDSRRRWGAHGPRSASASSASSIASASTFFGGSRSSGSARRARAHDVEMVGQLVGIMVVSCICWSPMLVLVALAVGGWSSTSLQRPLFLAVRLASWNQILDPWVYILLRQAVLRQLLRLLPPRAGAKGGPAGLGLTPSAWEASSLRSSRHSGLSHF

[4] = target: Prostaglandin E2 receptor EP2 subtype (Homo sapiens, UniProt P43116); assay: Binding affinity to human EP2 receptor assessed as inhibition constant
[5] = target: Prostaglandin E2 receptor EP4 subtype (Homo sapiens, UniProt P35408); assay: Binding affinity to human EP4 receptor assessed as inhibition constant
[6] = target: T2, Prostaglandin E2 receptor EP3 subtype (Rattus norvegicus, UniProt P34980); assay: Binding affinity to rat EP3 receptor assessed as inhibition constant
T2 sequence (P34980 whole entry): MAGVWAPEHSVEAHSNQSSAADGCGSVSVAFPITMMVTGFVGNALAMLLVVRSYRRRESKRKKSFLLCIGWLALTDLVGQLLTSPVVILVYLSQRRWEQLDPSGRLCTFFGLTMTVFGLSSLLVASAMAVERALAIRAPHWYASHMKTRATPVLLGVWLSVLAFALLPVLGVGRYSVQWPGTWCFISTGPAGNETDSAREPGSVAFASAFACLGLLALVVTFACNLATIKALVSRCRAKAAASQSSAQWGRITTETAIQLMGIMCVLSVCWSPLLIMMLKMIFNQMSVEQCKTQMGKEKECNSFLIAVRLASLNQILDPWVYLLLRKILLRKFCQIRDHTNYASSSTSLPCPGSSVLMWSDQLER

Rattus norvegicus = assay: In vivo antagonist activity at […] receptor in Sprague-Dawley rat assessed as reversal of sulprostone induced reduction in circulating insulin levels at 10 times Ki, administered as iv infusion measured up to 30 mins after glucose administration by glucose tolerance test; type: functional, organism-based; conditions: time min <=30
[7] = Free plasma concentration in Sprague-Dawley rat at 10 times Ki administered as iv infusion measured after 2 to 50 mins; type: ADME, organism-based; conditions: in vivo, time 2-50 min
[8] = Cmax in Sprague-Dawley rat at 10 mg/kg, po measured up to 24 hrs by LC-MS-MS analysis; type: ADME, organism-based; set-up: route oral, dose 10 mg/kg, time <=24; conditions: in vivo
[9] = AUClast in Sprague-Dawley rat at 10 mg/kg, po measured up to 24 hrs by LC-MS-MS analysis; type: ADME, organism-based; set-up: route oral, dose 10 mg/kg, time <=24; conditions: in vivo
[10] = Half life in Sprague-Dawley rat at 2 mg/kg, iv measured up to 24 hrs by LC-MS-MS analysis; type: ADME, organism-based; conditions: in vivo
[11] = Clearance in Sprague-Dawley rat at 2 mg/kg, iv measured up to 24 hrs by LC-MS-MS analysis; type: ADME, organism-based; conditions: in vivo
[12] = Volume of distribution at steady state in Sprague-Dawley rat at 2 mg/kg, iv measured up to 24 hrs by LC-MS-MS analysis; type: ADME, organism-based; conditions: in vivo, read-out: Vdss
[13] = Half life in Sprague-Dawley rat at 10 mg/kg, po measured up to 24 hrs by LC-MS-MS analysis; type: ADME, organism-based; conditions: in vivo
[14] = AUC(0 to 24 hrs) in Sprague-Dawley rat at 10 mg/kg, po measured up to 24 hrs by LC-MS-MS analysis; type: ADME, organism-based; set-up: route oral, dose 10 mg/kg, time <=24; conditions: in vivo
[15] = Oral bioavailability in Sprague-Dawley rat at 10 mg/kg measured up to 24 hrs by LC-MS-MS analysis; type: ADME, organism-based; conditions: in vivo

Chain of Prostaglandin E2 receptor EP4 subtype (P35408 whole entry): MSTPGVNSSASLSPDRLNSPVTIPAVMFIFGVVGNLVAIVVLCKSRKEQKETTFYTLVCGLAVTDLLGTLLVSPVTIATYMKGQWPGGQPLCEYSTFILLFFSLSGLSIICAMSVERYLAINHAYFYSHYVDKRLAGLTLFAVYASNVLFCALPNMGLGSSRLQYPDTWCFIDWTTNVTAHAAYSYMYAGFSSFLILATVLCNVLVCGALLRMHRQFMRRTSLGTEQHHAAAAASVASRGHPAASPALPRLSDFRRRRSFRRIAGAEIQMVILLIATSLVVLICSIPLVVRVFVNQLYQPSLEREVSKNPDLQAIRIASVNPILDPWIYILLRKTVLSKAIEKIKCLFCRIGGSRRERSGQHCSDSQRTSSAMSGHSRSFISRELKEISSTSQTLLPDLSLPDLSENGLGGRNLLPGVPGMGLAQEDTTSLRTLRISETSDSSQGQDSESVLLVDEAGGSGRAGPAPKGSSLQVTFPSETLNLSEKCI
Chain of Prostaglandin E2 receptor EP2 subtype (P43116 whole entry): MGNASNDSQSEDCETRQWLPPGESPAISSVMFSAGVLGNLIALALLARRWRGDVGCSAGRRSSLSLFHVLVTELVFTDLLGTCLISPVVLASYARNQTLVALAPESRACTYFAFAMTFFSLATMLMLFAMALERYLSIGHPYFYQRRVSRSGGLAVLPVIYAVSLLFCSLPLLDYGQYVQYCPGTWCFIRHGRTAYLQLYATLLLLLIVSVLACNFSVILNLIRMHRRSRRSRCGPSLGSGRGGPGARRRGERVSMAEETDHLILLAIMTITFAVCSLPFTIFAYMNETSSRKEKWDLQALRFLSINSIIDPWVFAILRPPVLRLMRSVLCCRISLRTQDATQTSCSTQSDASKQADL

With `O=C(NC/C=C1\CCCc2cnn(C3CCN(c4ccc(F)cc4)CC3)c21)NS(=O)(=O)c1cc(Cl)c(Cl)s1` the Cmax [1] was 130 nM and the AUC(0-t) at 7 h [2] was 0.73 µM·h.

In the case of `O=C(NC/C=C1\CCCc2cnn(Cc3ccc(Cl)cc3Cl)c21)NS(=O)(=O)c1ccc(Cl)cc1`, the Ki [3] is reported as 3.5 µM, the Ki [4] is reported as > 10 µM and the Ki [5] is reported as > 10 µM. For the same compound, the Ki [6] was 0.0036 µM, the Activity (Rattus norvegicus) was “Active” and the “Cp(f)” value [7] was 36 nM. It also gave a Cmax [8] of 1110 nM, an AUC(0-t) at 24 h [9] of 5.27 µM·h and a half-life [10] of 1.9 h. For the same compound, the clearance [11] was 14.9 mL/min/kg, the Vd [12] was 1.44 L/kg and the half-life [13] was 2.8 h. It also gave an AUC(0-t) [14] of 5.27 µM·h and a bioavailability [15] of 25%.

Work on `O=C(NC/C=C1\CCCc2cnn(-c3ccc(C(F)(F)F)cc3)c21)NS(=O)(=O)c1cc(Cl)c(Cl)s1` yielded a Cmax [1] of 1540 nM and an AUC(0-t) at 7 h [2] of 7.39 µM·h.

Work on `COc1ccc(S(=O)(=O)NC(=O)NC/C(F)=C2\CCCc3cnn(Cc4ccc(Cl)cc4Cl)c32)cc1Cl` yielded a Cmax [8] of 9390 nM, a Cmax [1] of 7100 nM and an AUC(0-t) at 7 h [2] of 31.9 µM·h. For the same compound, the half-life [10] was 6.2 h, the clearance [11] was 2.6 mL/min/kg and the Vd [12] was 0.346 L/kg. The half-life [13] was 2.9 h, the AUC(0-t) [14] was 49 µM·h and the bioavailability [15] was 44%.

`O=C(NS(=O)(=O)c1cc(Cl)c(Cl)s1)OC/C=C1\CCCc2cnn(Cc3ccc(Cl)cc3Cl)c21` showed a Cmax [8] of 130 nM, a half-life [10] of 2.1 h and a clearance [11] of 71.7 mL/min/kg. The Vd [12] was 3.45 L/kg, the half-life [13] was 2.3 h and the AUC(0-t) [14] was 0.89 µM·h. The bioavailability [15] was 24%.

For `Cc1cc(S(=O)(=O)NC(=O)NC/C(F)=C2\CCCc3cnn(Cc4ccc(Cl)cc4Cl)c32)sc1Cl`, the Cmax [8] was 9950 nM, the Cmax [1] was 11200 nM and the AUC(0-t) at 7 h [2] was 57.8 µM·h. For the same compound, the half-life [10] was 5.9 h, the clearance [11] was 1.66 mL/min/kg and the Vd [12] was 0.491 L/kg. It also gave a half-life [13] of 3.2 h, an AUC(0-t) [14] of 96.2 µM·h and a bioavailability [15] of 55%.

With `O=C(NC/C=C1\CCCc2cnn(Cc3ccc(Cl)cc3Cl)c21)NS(=O)(=O)c1cc(Cl)c(Cl)s1` the Cmax [8] was 1670 nM, the AUC(0-t) at 24 h [9] was 2.75 µM·h and the half-life [10] was 0.79 h. For the same compound, the clearance [11] was 81.2 mL/min/kg, the Vd [12] was 2.21 L/kg and the half-life [13] was 2.8 h. For the same compound, the AUC(0-t) [14] was 2.75 µM·h and the bioavailability [15] was 84%.

For `O=C(NS(=O)(=O)c1ccc(Cl)cc1)OC/C=C1\CCCc2cnn(Cc3ccc(Cl)cc3Cl)c21`, the Cmax [8] was 750 nM, the half-life [10] was 3.5 h and the clearance [11] was 21.3 mL/min/kg. It also gave a Vd [12] of 4.61 L/kg, a half-life [13] of 3.6 h and an AUC(0-t) [14] of 7.43 µM·h. The bioavailability [15] was 46%.

Compound `Cc1ncc(S(=O)(=O)NC(=O)NC/C=C2\CCCc3cnn(Cc4ccc(Cl)cc4Cl)c32)s1` has a Cmax [1] of 510 nM and an AUC(0-t) at 7 h [2] of 2.4 µM·h.

Compound `O=C(NC/C(F)=C1\CCCc2cnn(Cc3ccc(Cl)cc3Cl)c21)NS(=O)(=O)c1cc(Cl)c(Cl)s1` has a Cmax [1] of 3820 nM and an AUC(0-t) at 7 h [2] of 16.6 µM·h.

Work on `COc1ccc(Cl)cc1S(=O)(=O)NC(=O)NC/C(F)=C1\CCCc2cnn(Cc3ccc(Cl)cc3Cl)c21` yielded a Cmax [1] of 4750 nM and an AUC(0-t) at 7 h [2] of 10.8 µM·h.

For `O=C(NC/C(F)=C1\CCCc2cnn(-c3ccc(C(F)(F)F)cc3)c21)NS(=O)(=O)c1cc(Cl)c(Cl)s1`, the Cmax [1] was 700 nM and the AUC(0-t) at 7 h [2] was 3.68 µM·h.
